Values joined by “and” are separate entries in the source; they are usually repeats but may differ in a detail not shown here. Identical values can stand only once. Toxic doses and inconclusive results are not listed.
Tested on: P388 leukemia ip, CD2F1 mice, survival T/C
Test: NCI In Vivo Anticancer Drug Screen. Data for tumor model P388 Leukemia (intraperitoneal) in CD2F1 (CDF1) mice
Conditions: endpoint: median survival time, higher = longer survival
How it was run: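 Mice carrying the transplanted tumor received test compound or vehicle. Survival was recorded in each group, and the value is the treated-group measurement divided by that of the vehicle-treated control group.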

[1] = dose: 50.0 mg/kg/injection, schedule: Q01DX005 (ip), vehicle: Klucel (hydroxypropylcellulose) (HPC)
[2] = dose: 50.0 mg/kg/injection, schedule: Q01DX009 (ip), vehicle: Klucel (hydroxypropylcellulose) (HPC)
[3] = dose: 100.0 mg/kg/injection, schedule: Q01DX005 (ip), vehicle: Klucel (hydroxypropylcellulose) (HPC)
[4] = dose: 100.0 mg/kg/injection, schedule: Q01DX001 (ip), vehicle: Klucel (hydroxypropylcellulose) (HPC)
[5] = dose: 200.0 mg/kg/injection, schedule: Q01DX001 (ip), vehicle: Klucel (hydroxypropylcellulose) (HPC)
[6] = dose: 400.0 mg/kg/injection, schedule: Q01DX001 (ip), vehicle: Klucel (hydroxypropylcellulose) (HPC)
[7] = dose: 60.0 mg/kg/injection, schedule: Q01DX005 (ip), vehicle: saline with Tween-80
[8] = dose: 120.0 mg/kg/injection, schedule: Q01DX005 (ip), vehicle: saline with Tween-80
[9] = dose: 240.0 mg/kg/injection, schedule: Q01DX005 (ip), vehicle: saline with Tween-80
[10] = dose: 100.0 mg/kg/injection, schedule: Q01DX009 (ip), vehicle: Klucel (hydroxypropylcellulose) (HPC)
[11] = dose: 200.0 mg/kg/injection, schedule: Q01DX009 (ip), vehicle: Klucel (hydroxypropylcellulose) (HPC)
[12] = dose: 50.0 mg/kg/injection, schedule: Q01DX009 (ip), vehicle: saline
[13] = dose: 50.0 mg/kg/injection, schedule: Q01DX001 (ip), vehicle: Klucel (hydroxypropylcellulose) (HPC)

N#CC(C#N)=NNc1ccc2cn[nH]c2c1
T/C (dose: 12.5 mg/kg/injection, schedule: Q01DX005 (ip), vehicle: Klucel (hydroxypropylcellulose) (HPC)): 101 % of control
T/C (dose: 25.0 mg/kg/injection, schedule: Q01DX005 (ip), vehicle: Klucel (hydroxypropylcellulose) (HPC)): 105 % of control and 107 % of control
T/C [1]: 116 % of control and 119 % of control and 120 % of control

O=C(c1cccs1)C1SC(C(=O)c2cccs2)C2(O)c3cccc4cccc(c34)C12O (configuration not stated)
T/C (dose: 7.5 mg/kg/injection, schedule: Q01DX009 (ip), vehicle: Klucel (hydroxypropylcellulose) (HPC)): 100 % of control

CC(=O)OCc1c(COC(C)=O)c(-c2ccc(Cl)cc2)n2c1CCC2
T/C [2]: 118 % of control

COc1ccc(C(=O)Nc2c(O)ccc3ccccc23)cc1OC
T/C (dose: 50.0 mg/kg/injection, schedule: Q01DX005 (ip), vehicle: saline with Tween-80): 101 % of control
T/C (dose: 100.0 mg/kg/injection, schedule: Q01DX005 (ip), vehicle: saline with Tween-80): 97 % of control
T/C (dose: 200.0 mg/kg/injection, schedule: Q01DX005 (ip), vehicle: saline with Tween-80): 100 % of control

O=C1/C(=C/c2ccc3c(c2)OCO3)SC(=S)N1c1ccc(Cl)c(Cl)c1
T/C [1]: 103 % of control
T/C [3]: 100 % of control

Nc1ccccc1C(=O)On1nnc2ccccc2c1=O
T/C [4]: 103 % of control
T/C [5]: 103 % of control
T/C [6]: 100 % of control

O=C1CCC(=O)c2c1c(O)c1c(O)ccc(O)c1c2O
T/C (dose: 6.25 mg/kg/injection, schedule: Q01DX005 (ip), vehicle: saline with Tween-80): 96 % of control
T/C (dose: 12.5 mg/kg/injection, schedule: Q01DX005 (ip), vehicle: saline with Tween-80): 87 % of control
T/C (dose: 25.0 mg/kg/injection, schedule: Q01DX005 (ip), vehicle: saline with Tween-80): 94 % of control

Nc1nnc(COc2ccc(Cl)cc2)n1N
T/C [7]: 107 % of control
T/C [8]: 108 % of control

COc1ccc2c(c1O)C13CCN(C)[C@@H](C2)C12CC2/C(=N/O)[C@H]3OC(C)=O (some centres not stated)
T/C [1]: 92 % of control
T/C [3]: 97 % of control

COC(=O)c1nc(=S)[nH]c(C(=O)OC)c1C(=O)c1ccccn1
T/C (dose: 60.0 mg/kg/injection, schedule: Q01DX005 (ip), vehicle: Klucel + Tween-80): 105 % of control
T/C (dose: 120.0 mg/kg/injection, schedule: Q01DX005 (ip), vehicle: Klucel + Tween-80): 95 % of control
T/C (dose: 240.0 mg/kg/injection, schedule: Q01DX005 (ip), vehicle: Klucel + Tween-80): 95 % of control

CCSC(=S)Nc1nc2ccc(C)cc2s1
T/C (dose: 6.25 mg/kg/injection, schedule: Q01DX009 (ip), vehicle: Klucel (hydroxypropylcellulose) (HPC)): 107 % of control
T/C (dose: 12.5 mg/kg/injection, schedule: Q01DX009 (ip), vehicle: Klucel (hydroxypropylcellulose) (HPC)): 89 % of control
T/C (dose: 25.0 mg/kg/injection, schedule: Q01DX009 (ip), vehicle: Klucel (hydroxypropylcellulose) (HPC)): 103 % of control

NSc1ccc([N+](=O)[O-])cc1
T/C (dose: 25.0 mg/kg/injection, schedule: Q01DX001 (ip), vehicle: other): 109 % of control
T/C (dose: 50.0 mg/kg/injection, schedule: Q01DX001 (ip), vehicle: other): 100 % of control

c1ccc(C2=NN(c3ccccc3)C3(c4ccccc4)CCCN23)cc1 (configuration not stated)
T/C (dose: 100.0 mg/kg/injection, schedule: Q01DX001 (ip), vehicle: saline with Tween-80): 108 % of control
T/C (dose: 200.0 mg/kg/injection, schedule: Q01DX001 (ip), vehicle: saline with Tween-80): 97 % of control
T/C (dose: 400.0 mg/kg/injection, schedule: Q01DX001 (ip), vehicle: saline with Tween-80): 95 % of control

O=C(CCN1C(=O)c2ccccc2C1=O)c1cnc[nH]1
T/C (dose: 17.5 mg/kg/injection, schedule: Q01DX005 (ip), vehicle: Klucel (hydroxypropylcellulose) (HPC)): 105 % of control
T/C (dose: 35.0 mg/kg/injection, schedule: Q01DX005 (ip), vehicle: Klucel (hydroxypropylcellulose) (HPC)): 90 % of control
T/C (dose: 70.0 mg/kg/injection, schedule: Q01DX005 (ip), vehicle: Klucel (hydroxypropylcellulose) (HPC)): 98 % of control

CCN(CC)P(=S)(c1ccccc1CCP(=S)(c1ccccc1)c1ccccc1)N(CC)CC
T/C [7]: 92 % of control
T/C [8]: 93 % of control
T/C [9]: 91 % of control

NC(=O)C1CCCN1C(=O)C1CCCN(Cc2cc(CN3CCCC(C(=O)N4CCCC4C(N)=O)C3)cc(CN3CCCC(C(=O)N4CCCC4C(N)=O)C3)c2)C1 (configuration not stated)
T/C (dose: 60.0 mg/kg/injection, schedule: Q01DX005 (ip), vehicle: saline): 104 % of control
T/C (dose: 120.0 mg/kg/injection, schedule: Q01DX005 (ip), vehicle: saline): 98 % of control
T/C (dose: 240.0 mg/kg/injection, schedule: Q01DX005 (ip), vehicle: saline): 95 % of control

CNC(=O)OCc1nc(-c2ccccc2)sc1COC(=O)NC
T/C (dose: 12.5 mg/kg/injection, schedule: Q01DX005 (ip), vehicle: distilled water + Tween-80): 94 % of control
T/C (dose: 25.0 mg/kg/injection, schedule: Q01DX005 (ip), vehicle: distilled water + Tween-80): 93 % of control

Clc1ccc(NC2=NCCS2)cc1Cl
T/C [2]: 103 % of control
T/C [10]: 92 % of control
T/C [11]: 101 % of control

CCOC(=O)NC1CCC2(C)CCCCC2C1 (configuration not stated)
T/C [12]: 100 % of control
T/C (dose: 100.0 mg/kg/injection, schedule: Q01DX009 (ip), vehicle: saline): 97 % of control
T/C (dose: 200.0 mg/kg/injection, schedule: Q01DX009 (ip), vehicle: saline): 109 % of control

COc1cc2cc3c(-c4ccccc4)noc3nc2cc1OC
T/C [7]: 106 % of control
T/C [8]: 93 % of control
T/C [9]: 90 % of control

O=c1[nH]c(=O)n(Cl)c(=O)n1Cl
T/C [2]: 116 % of control
T/C [10]: 99 % of control

COc1cc2c(cc1OC)C(C(=O)O)C1c3cc4c(cc3CCN1C2=O)OCO4 (configuration not stated)
T/C (dose: 50.0 mg/kg/injection, schedule: Q04DX003 (ip), vehicle: distilled water + Tween-80): 102 % of control and 115 % of control
T/C (dose: 100.0 mg/kg/injection, schedule: Q04DX003 (ip), vehicle: distilled water + Tween-80): 105 % of control and 100 % of control
T/C (dose: 200.0 mg/kg/injection, schedule: Q04DX003 (ip), vehicle: distilled water + Tween-80): 113 % of control and 100 % of control
T/C (dose: 400.0 mg/kg/injection, schedule: Q04DX003 (ip), vehicle: distilled water + Tween-80): 88 % of control and 100 % of control

C=CCC1(C)C=C(C)C(=O)C(C)=C1
T/C [7]: 105 % of control
T/C [8]: 102 % of control
T/C [9]: 104 % of control

Cn1c(C2CCC(=O)N2Cc2ccccc2)n[nH]c1=S (configuration not stated)
T/C [7]: 101 % of control
T/C [8]: 101 % of control
T/C [9]: 100 % of control

CCCCOc1cccc2c(NCCCCCCNc3c4ccccc4nc4c(OCCCC)cccc34)c3ccccc3nc12
T/C (dose: 0.62 mg/kg/injection, schedule: Q## X009 (ip), vehicle: lactic acid): 104 % of control
T/C (dose: 1.25 mg/kg/injection, schedule: Q## X009 (ip), vehicle: lactic acid): 104 % of control
T/C (dose: 2.5 mg/kg/injection, schedule: Q## X009 (ip), vehicle: lactic acid): 106 % of control
T/C (dose: 5.0 mg/kg/injection, schedule: Q## X009 (ip), vehicle: lactic acid): 99 % of control

Nc1n[nH]c(=O)n1N
T/C [4]: 106 % of control
T/C [5]: 100 % of control
T/C [6]: 107 % of control

CC1=CC(C)(C2(C)C=C(C)NC(=O)N2)NC(=O)N1 (configuration not stated)
T/C (dose: 25.0 mg/kg/injection, schedule: Q01DX001 (ip), vehicle: Klucel (hydroxypropylcellulose) (HPC)): 99 % of control
T/C [13]: 98 % of control
T/C [4]: 99 % of control

CCCCC(CC)C[N+]1(C)CCOCC1 (configuration not stated)
T/C (dose: 12.5 mg/kg/injection, schedule: Q01DX009 (ip), vehicle: saline): 100 % of control
T/C (dose: 25.0 mg/kg/injection, schedule: Q01DX009 (ip), vehicle: saline): 100 % of control
T/C [12]: 94 % of control

O=[N+]([O-])c1ccccc1N=NNc1ccccc1
T/C [2]: 95 % of control
T/C [10]: 91 % of control
T/C [11]: 104 % of control

CC1C[N+]2(CNC(=O)c3ccccc3O)CC(C)O[B-]2(c2ccccc2)O1 (configuration not stated)
T/C [1]: 103 % of control
T/C [3]: 100 % of control
T/C (dose: 200.0 mg/kg/injection, schedule: Q01DX005 (ip), vehicle: Klucel (hydroxypropylcellulose) (HPC)): 103 % of control

CC/C(=C(/CC)c1ccc(OCC(=O)N/N=C2\CCC3C4CCc5cc(O)ccc5C4CCC23C)cc1)c1ccc(OCC(=O)N/N=C2/CCC3C4CCc5cc(O)ccc5C4CCC23C)cc1 (configuration not stated)
T/C (dose: 3.12 mg/kg/injection, schedule: Q01DX001 (ip), vehicle: Klucel (hydroxypropylcellulose) (HPC)): 100 % of control
T/C (dose: 6.25 mg/kg/injection, schedule: Q01DX001 (ip), vehicle: Klucel (hydroxypropylcellulose) (HPC)): 102 % of control
T/C (dose: 12.5 mg/kg/injection, schedule: Q01DX001 (ip), vehicle: Klucel (hydroxypropylcellulose) (HPC)): 97 % of control
T/C [13]: 91 % of control
T/C [5]: 87 % of control
